Patent US20100204470A1, “METHOD FOR SALT PREPARATION” (Sandoz AG, priority 2006, published 2010)
Where a name gives a salt, the structure may show the parent alone. Values belong to the compound of their own block, whether it stands above or below them.

How the values were obtained:
[1] = Storage in a dessicator at a humidity level of 33% (hygroscopicity, conversion to hydrous form); type: physicochemical
From the text: The present invention also relates to a novel anhydrous hydrochloride salt of Moxifloxacin, herein called form IV. […] More particular, the invention relates to form IV characterized by an X-ray powder diffraction pattern with peaks at about 10.0, 13.2, 15.3, 17.2 and 24.4 degrees 2 theta. The invention also relates to form IV characterized by infrared absorption bands at about 2704, 1720, 1434, 1312 and 1273 cm^−1.
The new anhydrous form IV may preferably be prepared by desolvating Moxifloxacin hydrochloride methylene dichloride solvate by drying in vacuum at about 100° C. […] The invention also relates to pharmaceutical compositions comprising form IV.

[2] = General solubility / stability of the crystalline salt; type: physicochemical; conditions: qualitative statement
[3] = anhydrous vs monohydrate hydrochloride; disclosed in WO 95/07902; cited from earlier work
[4] = compared with monohydrate salt form; disclosed in WO 95/07902; cited from earlier work
[5] = Stability of solvate under air drying conditions (desolvation)
[6] = dessicator, humidity level 33%, 48 hours

Compound: COc1c(N2C[C@@H]3CCCN[C@@H]3C2)c(F)cc2c(=O)c(C(=O)O)cn(C3CC3)c12.Cl [Moxifloxacine Hydrochloride Anhydrous Form IV]
- moisture content after humidity storage ([1]; after 48 hours at humidity level 33%): 0.6%
- hygroscopicity relative to other anhydrous forms ([1]; compared with anhydrous form II (US 5849 752, Bayer) and anhydrous form B (WO 2005/054240, Chemi Spa)): lower hygroscopicity
- XRPD pattern after humidity storage [1, 6]: no alteration
- conversion to a hydrous form [1, 6]: does not convert to a hydrous form
- moisture content before humidity storage ([1]; initial value): 0.5%

Compound: COc1c(C)c2c(c(O)c1C/C=C(\C)CCC(=O)OCCN1CCOCC1)C(=O)OC2 [mycophenolate mofetil hydrochloride]
- increase in solubility over the monohydrate salt form [3]: two-fold
- stability characteristics [4]: possessing the stability characteristics of the monohydrate salt form

Compound: Raloxifene Hydrochloride THF hemisolvate
- stability / desolvation under air drying conditions [5]: stable and does not desolvate

The next lines start with the values.

- solubility and/or stability [2]: good solubility and/or stability
Compound: COc1c(N2C[C@@H]3CCCN[C@@H]3C2)c(F)cc2c(=O)c(C(=O)O)cn(C3CC3)c12 [Moxifloxacine hydrochloride]

- hygroscopicity (water uptake) ([1]; 1 day at 33% relative humidity): not hygroscopic
- stability / desolvation under air drying conditions [5]: stable and does not desolvate
Compound: Moxifloxacine Hydrochloride Methylene Dichloride Solvate
